From ChEMBL document CHEMBL5042547, “Activable Targeted Protein Degradation Platform Based on Light-triggered Singlet Oxygen” (J Med Chem, 2022)
Activity calls are given as the source filed them. The calls are words filed in the database; no cut-off is given here.

Experiments:
[1] = target: T1, Estrogen receptor (Homo sapiens) (UniProt P03372); experiment: Induction of degradation of human ERalpha in MCF7 cells at 1 uM incubated for 6 hrs followed by irradiation for 30 min measured for 24 hrs; assay type: cell-based; conditions: time 30.5 hrs
T1 sequence (whole entry): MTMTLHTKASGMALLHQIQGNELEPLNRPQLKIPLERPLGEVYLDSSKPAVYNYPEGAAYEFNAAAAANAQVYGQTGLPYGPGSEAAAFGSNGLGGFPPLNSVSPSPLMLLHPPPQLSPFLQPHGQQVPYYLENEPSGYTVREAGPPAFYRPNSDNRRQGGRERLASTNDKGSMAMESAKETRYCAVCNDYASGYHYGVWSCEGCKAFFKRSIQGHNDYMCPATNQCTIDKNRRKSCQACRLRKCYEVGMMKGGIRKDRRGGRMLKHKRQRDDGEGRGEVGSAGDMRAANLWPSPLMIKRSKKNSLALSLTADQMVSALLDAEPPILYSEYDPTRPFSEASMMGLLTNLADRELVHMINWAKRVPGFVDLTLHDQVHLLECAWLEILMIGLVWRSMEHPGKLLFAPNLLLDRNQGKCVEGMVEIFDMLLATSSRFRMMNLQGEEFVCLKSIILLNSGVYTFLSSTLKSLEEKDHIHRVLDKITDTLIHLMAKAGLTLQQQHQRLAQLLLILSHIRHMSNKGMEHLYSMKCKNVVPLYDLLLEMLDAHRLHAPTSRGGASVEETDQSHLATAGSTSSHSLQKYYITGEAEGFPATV

[2] = target: T1, Estrogen receptor (Homo sapiens); experiment: Induction of human ERalpha degradation-mediated apoptosis in human MCF7 cells assessed as increase in cytochrome c release from mitochondria at 0.01 uM irradiated for 45 mins by ELISA analysis
[3] = target: T1, Estrogen receptor (Homo sapiens); experiment: Induction of degradation of human ERalpha by generation of singlet oxygen incubated for 3 hrs followed by irradiated with 460 +/- 10 nm LED light for 15 mins by circular dichroism spectroscopy; conditions: time 195.0 min
[4] = target: T1, Estrogen receptor (Homo sapiens); experiment: Induction of degradation of human ERalpha in MCF7 cells at 0.1 uM incubated for 6 hrs followed by irradiation for 30 min measured after 2 to 8 hrs; assay type: cell-based; conditions: time 8.5-14.5 hrs, TDE = time-dependent effect
MCF7 [5] = experiment: Induction of cell cycle arrest in human MCF7 cells assessed as decrease of cells at S phase after irradiation by propidium iodide based flow cytometry analysis; assay type: functional; conditions: time 15-45 min, TDE = time-dependent effect
[6] = target: T1, Estrogen receptor (Homo sapiens); experiment: Binding affinity to human ERalpha assessed as change in enthalpy by isothermal titration calorimetry
[7] = target: T1, Estrogen receptor (Homo sapiens); experiment: Induction of human ERalpha degradation-mediated apoptosis in human MCF7 cells assessed as increase in expression level of Bak at 0.01 uM by ELISA analysis; assay type: cell-based
[8] = target: T1, Estrogen receptor (Homo sapiens); experiment: Induction of human ERalpha degradation-mediated apoptosis in human MCF7 cells assessed as increase in expression level of p53 at 0.01 uM by ELISA analysis; assay type: cell-based
MCF7 [9] = experiment: Antiproliferative activity against human MCF7 cells in presence of N-acetyl-L-cysteine irradiated daily; assay type: functional, cell-based
[10] = target: T1, Estrogen receptor (Homo sapiens); experiment: Induction of degradation of human ERalpha in human MCF7 cells by generation of singlet oxygen at 1 uM in presence of N-acetyl-L-cysteine by fluorescent probe based DCFH-DA assay; assay type: cell-based
[11] = target: T1, Estrogen receptor (Homo sapiens); experiment: Induction of degradation of human ERalpha in human MCF7 cells at 1 uM incubated for 1 to 6 hrs followed by irradiated light of 460 nm for 30 mins measured after 3 hrs by immunoblot analysis; assay type: cell-based; conditions: time 4.5-9.5 hrs
MCF7 [12] = experiment: Antiproliferative activity against human MCF7 cells assessed as cell viability at irradiation for 15 mins daily for 3 days; assay type: functional, cell-based; conditions: MCF7, light or radiation study
MCF7 [13] = experiment: Antiproliferative activity against human MCF7 cells under dark condition; assay type: functional, cell-based
MCF7 [14] = experiment: Antiproliferative activity against human MCF7 cells assessed as cell viability at irradiation for 30 mins daily for 3 days; assay type: functional, cell-based; conditions: MCF7, light or radiation study
Estrogen receptor [15] = target: T2, Estrogen receptor (Homo sapiens, UniProt P03372); experiment: Induction of degradation of human ERalpha in MCF7 cells irradiated with 460 light for 45 mins; assay type: cell-based
T2 sequence (P03372 whole entry): T1 sequence (whole entry)

[16] = target: T1, Estrogen receptor (Homo sapiens); experiment: Induction of degradation of human ERalpha in human MCF7 cells by generation of singlet oxygen at 1 uM in presence of glutathione by fluorescent probe based DCFH-DA assay; assay type: cell-based
[17] = target: T1, Estrogen receptor (Homo sapiens); experiment: Induction of degradation of human ERalpha in human MCF7 cells at 1 uM incubated for 1 to 12 hrs in dark after 3 hrs by immunoblot analysis; assay type: cell-based; conditions: time 4-15 hrs
MCF7 [18] = experiment: Antiproliferative activity against human MCF7 cells in presence of dithiothreitol irradiated daily; assay type: functional, cell-based
MCF-10A [19] = experiment: Cytotoxicity against human MCF-10A cells upto 100 uM assessed as cell viability at irradiation for 15 to 45 mins measured after 72 hrs; assay type: toxicity, cell-based; conditions: time 72.25-72.75 hrs
MCF7 [20] = experiment: Antiproliferative activity against human MCF7 cells assessed as cell viability at irradiation for 45 mins measured after 72 hrs; assay type: functional, cell-based; conditions: MCF7, light or radiation study
MCF7 [21] = experiment: Antiproliferative activity against human MCF7 cells assessed as cell viability at irradiation for 45 mins daily for 3 days; assay type: functional, cell-based; conditions: MCF7, light or radiation study
MCF7 [22] = experiment: Induction of apoptosis in human MCF7 cells assessed as late apoptotic cells at 0.01 to 1 uM irradiated 30 mins for 3 days by annexin V-FITC/PI double staining method; assay type: functional, cell-based; conditions: dose 0.01-1 µM
MCF7 [23] = experiment: Antiproliferative activity against human MCF7 cells assessed as cell viability at irradiation for 30 mins measured after 72 hrs; assay type: functional, cell-based; conditions: MCF7, light or radiation study
MCF7 [24] = experiment: Induction of cell cycle arrest in human MCF7 cells assessed accumulation of cells at G1 phase after irradiation measured after 16 hrs by propidium iodide based flow cytometry analysis; assay type: functional
[25] = target: T1, Estrogen receptor (Homo sapiens); experiment: Induction of degradation of human ERalpha in MCF7 cells at 0.01 to 0.1 uM irradiated with 460 light for 15 to 60 mins; assay type: cell-based; conditions: dose 0.01-0.1 µM, time 15-60 min
MCF7 [26] = experiment: Antiproliferative activity against human MCF7 cells in presence of glutathione irradiated daily; assay type: functional, cell-based
[27] = target: T1, Estrogen receptor (Homo sapiens); experiment: Induction of human ERalpha degradation in human MCF7 cells assessed as increase in response of cell to ABT-263-mediated Bcl-2 inhibition; assay type: cell-based
[28] = target: T1, Estrogen receptor (Homo sapiens); experiment: Induction of human ERalpha degradation-mediated apoptosis in human MCF7 cells assessed as increase in expression level of Bcl-2 at 0.01 uM irradiated for 45 min by ELISA analysis; assay type: cell-based
[29] = target: T1, Estrogen receptor (Homo sapiens); experiment: Induction of degradation of human ERalpha in MCF7 cells assessed as ERalpha level at 0.1 uM incubated for 6 hrs followed by irradiation for 30 min measured after 16 hrs; assay type: cell-based; conditions: time 22.5 hrs
MCF7 [30] = experiment: Induction of cell cycle arrest in human MCF7 cells assessed as decrease of cells at G2/M phase after irradiation by propidium iodide based flow cytometry analysis; assay type: functional; conditions: time 15-45 min, TDE = time-dependent effect
[31] = target: T1, Estrogen receptor (Homo sapiens); experiment: Induction of degradation of human ERalpha in human MCF7 cells assessed as decrease in expression of cyclin D1 gene at 24 hrs; assay type: cell-based
[32] = target: T1, Estrogen receptor (Homo sapiens); experiment: Induction of degradation of human ERalpha irradiated with 460 +/- 10 nm LED light for 15 mins by gel electrophoresis
[33] = target: T1, Estrogen receptor (Homo sapiens); experiment: Induction of degradation of human ERalpha by generation of singlet oxygen incubated for 3 hrs followed by irradiated with 460 +/- 10 nm LED light for 30 mins by circular dichroism spectroscopy; conditions: time 210.0 min
[34] = target: T1, Estrogen receptor (Homo sapiens); experiment: Induction of human ERalpha degradation-mediated apoptosis in human MCF7 cells assessed as increase in expression level of Bax at 0.01 uM by ELISA analysis; assay type: cell-based
[35] = target: T1, Estrogen receptor (Homo sapiens); experiment: Induction of human ERalpha degradation-mediated apoptosis in human MCF7 cells assessed as loss of mitochondrial membrane potential at 0.01 uM irradiated for 45 mins by TMRM fluorescence based cytometric analysis; assay type: cell-based
MCF-10A [36] = experiment: Cytotoxicity against human MCF-10A cells upto 100 uM under dark condition; assay type: toxicity, cell-based
[37] = target: T1, Estrogen receptor (Homo sapiens); experiment: Induction of degradation of human ERalpha in human MCF7 cells by generation of singlet oxygen at 1 uM in presence of dithiothreitol by fluorescent probe based DCFH-DA assay; assay type: cell-based
[38] = target: T1, Estrogen receptor (Homo sapiens); experiment: Induction of degradation of human ERalpha irradiated with 460 +/- 10 nm LED light for 30 to 45 mins by gel electrophoresis; conditions: time 30-45 min
Estrogen receptor [39] = target: T2, Estrogen receptor; experiment: Induction of degradation of human ERalpha in MCF7 cells irradiated with 460 light for 30 mins; assay type: cell-based
[40] = Drug uptake in human MCF7 cells assessed as peak mean fluorescence intensity measured after 6 to 12hrs by cytometric analysis; assay type: ADME, cell-based
[41] = target: T1, Estrogen receptor (Homo sapiens); experiment: Induction of degradation of human ERalpha in MCF7 cells at 0.1 uM incubated for 6 hrs followed by irradiation for 30 min measured after 2 hrs; assay type: cell-based; conditions: time 8.5 hrs
[42] = target: T1, Estrogen receptor (Homo sapiens); experiment: Binding affinity to human ERalpha assessed as change in entropy by isothermal titration calorimetry
[43] = target: T1, Estrogen receptor (Homo sapiens); experiment: Induction of degradation of human ERalpha in human MCF7 cells assessed as decrease in expression of c-MYC gene at 24 hrs; assay type: cell-based
MCF7 [44] = experiment: Induction of cell cycle arrest in human MCF7 cells assessed as accumulation of cells at G1 phase after irradiation by propidium iodide based flow cytometry analysis; assay type: functional; conditions: time 15-45 min, TDE = time-dependent effect
MCF7 [45] = experiment: Induction of cell cycle arrest in human MCF7 cells assessed as transition of cells from G1 to S phase after irradiation measured after 24 hrs by propidium iodide based flow cytometry analysis; assay type: functional
MCF7 [46] = experiment: Antiproliferative activity against human MCF7 cells assessed as cell viability at irradiation for 15 mins measured after 72 hrs; assay type: functional, cell-based; conditions: MCF7, light or radiation study
MCF7 [47] = experiment: Induction of cell cycle arrest in human MCF7 cells assessed as cells at S phase after irradiation measured after 16 hrs by propidium iodide based flow cytometry analysis; assay type: functional
Estrogen receptor [48] = target: T2, Estrogen receptor; experiment: Binding affinity to human ERalpha by competitive fluorometric receptor binding assay
MCF7 [49] = experiment: Induction of apoptosis in human MCF7 cells at 1 uM after irradiation for 30 mins annexin V-FITC/PI double staining method; assay type: functional, cell-based
MCF7 [50] = experiment: Induction of cell cycle arrest in human MCF7 cells assessed as accumulation of cells at G1 phase at 1 uM after irradiation for 30 mins by propidium iodide based flow cytometry analysis; assay type: functional
[51] = target: T1, Estrogen receptor (Homo sapiens); experiment: Induction of degradation of human ERalpha in human MCF7 cells at 0.01 to 1 uM incubated for 6 hrs followed by irradiated light of 460 nm for 45 mins measured after 3 hrs by immunoblot analysis; assay type: cell-based; conditions: dose 0.01-1 µM, time 9.0 hrs

SMILES: C[C@]12CC[C@@H]3c4ccc(O)cc4CC[C@H]3[C@@H]1CC[C@@]2(O)C#Cc1ccc(-c2ccc(N(c3ccccc3)c3ccccc3)cc2)c2nsnc12
- Activity [1]: Active
- Activity [2]: Active
- Activity [3]: Active
- Activity [4]: Tde
- Activity (MCF7 [5]): Tde
- deltaH [6]: -4.39 kcal/mol
- Activity [7]: Active
- Activity [8]: Active
- Activity (MCF7 [9]): inactive
- Activity [10]: inactive
- Activity [11]: Active
- IC50 (MCF7 [12]): 3.5 µM
- Activity (MCF7 [13]): inactive
- IC50 (MCF7 [14]): 0.11 µM
- EC50 (Estrogen receptor [15]): 0.5 µM
- Activity [16]: inactive
- Activity [17]: Active
- Activity (MCF7 [18]): inactive
- Activity (MCF-10A [19]): Non-Toxic
- IC50 (MCF7 [20]): 5.9 µM
- IC50 (MCF7 [21]): 0.022 µM
- Activity (MCF7 [22]): Active
- IC50 (MCF7 [23]): 6.1 µM
- Activity (MCF7 [24]): Active
- Activity [25]: Active
- Activity (MCF7 [26]): inactive
- Activity [27]: Active
- Activity [28]: inactive
- Activity [29]: 90%
- Activity (MCF7 [30]): Tde
- Activity [31]: Active
- Activity [32]: Active
- Activity [33]: Active
- Activity [34]: Active
- Activity [35]: Active
- Activity (MCF-10A [36]): Non-Toxic
- Activity [37]: inactive
- Activity [38]: Active
- EC50 (Estrogen receptor [39]): 17 µM
- Drug uptake [40]: Active
- Activity [41]: Active
- deltaS [42]: 52.2 J/mol/K
- Activity [43]: Active
- Activity (MCF7 [44]): Tde
- Activity (MCF7 [45]): Active
- IC50 (MCF7 [46]): 8.9 µM
- Activity (MCF7 [47]): inactive
- Ki (Estrogen receptor [48]): 0.0728 µM

SMILES: Brc1ccc(-c2ccc(N(c3ccccc3)c3ccccc3)cc2)c2nsnc12
- Activity (MCF7 [49]): inactive
- Activity (MCF7 [50]): inactive
- Activity [51]: inactive
